Consider two compounds from patent US12605350B2, “Composition for preventing, ameliorating, or treating disease caused by nitration of tyrosine in proteins comprising tyrosine as effective component” (INDUSTRY-ACADEMIC COOPERATION FOUNDATION GYEONGSANG …, priority 2020, dated 2026).

“Also recorded” adds a separate entry of the source.

The test system of one test is nitrotyrosine protein. The test is described as follows: nitrotyrosine protein in kidney tissues (Western blot), renal ischemia and reperfusion. The class given is in vivo, mouse. The settings on record: L-tyrosine 100 mg/kg oral for 4 days, 24 hours after ischemia and reperfusion. The protocol:
C57BL/6 male mouse (23 to 25 g, KOATECH, South Korea) was allowed to have free access to diets and water in sterile breeding room with constant temperature and humidity. The animals were divided into 3 test groups, i.e., 1) Control group (Sham), 2) Renal ischemia having treatment with prepared solvent and induced reperfusion group (CMC+IR), and 3) Renal ischemia having treatment with L-tyrosine and induced reperfusion group (L-Tyr+IR).
L-Tyrosine (100 mg/kg) was suspended in 0.5% CMC (carboxymethyl cellulose). The animal was orally administered, once a day for 4 days, with L-tyrosine or the prepared solvent CMC. Thirty minutes after the oral administration on Day 4, renal ischemia was caused. Specifically, the animal abdomen was cut and renal pedicles at both sides were clamped using a Muller atraumatic vascular clamp to cause renal ischemia. After 25 minutes of blood ischemia, the clamp was removed followed by reperfusion. The control group (Sham) received the same operational procedures as above except the ischemia using clamp. Twenty-four hours after the reperfusion, the test animal was sacrificed, blood was collected from the heart, and the tissues were harvested.
Kidney tissues were homogenized with RIPA buffer solution. After centrifuge for 15 minutes at 16,000×g, 4° C., supernatant was collected and the protein quantification was carried out by BCA method. […]

Test [1] relates to animal model of acute hepatic encephalopathy caused by AOM. The test is described as follows: ALT in plasma, hepatic encephalopathy caused by azoxymethane. The class given is in vivo, mouse. The settings on record: L-tyrosine 100 mg/kg oral once a day for 4 days, AOM 100 mg/kg i.p. The protocol: C57BL/6 male mouse (13-week old, KOATECH, South Korea) was allowed to have free access to diets and water in sterile breeding room with constant temperature and humidity. The animals were divided into 3 test groups, i.e., (1) Control group (Control), (2) Carboxymethyl cellulose+azoxymethane treatment group (CMC+AOM), and (3) L-Tyrosine+AOM treatment group (L-Tyr+AOM). L-Tyrosine (100 mg/kg) was suspended in 0.5% CMC (carboxymethyl cellulose). The animal was orally administered, once a day for 4 days, with L-tyrosine or the prepared solvent CMC. Two hours after the oral administration on Day 4, intraperitoneal injection of AOM (100 mg/kg, […]) was carried out. To prevent dehydration, the animal was intraperitoneally injected with […] of physiological saline, 12 hours after the administration of AOM. Four hours after the injection, the test animal was sacrificed, blood was collected from the heart, and the liver tissues were harvested. Blood collected in the above was centrifuged for 15 minutes at 3,000 rpm to separate plasma, and ALT (alanine aminotransferase) as an index of liver cell injury was measured by using ChemiLab GPT Assay Kit (IVD-LAB, Korea). According to the standard measurement method of the kit, absorbance was measured at a wavelength of 340 nm, and then expressed in unit of U/L.

The test system of test [2] is high-fat diet mouse model of type 2 diabetes. The test is described as follows: high-fat diet mouse model of type 2 diabetes: bodyweight, food intake amount, blood glucose. The class given is in vivo. Particulars: HFD+L-Tyr (181 mg of L-tyrosine/kg) compared to HFD, measured every week. Here is the method: Twenty-seven C57BL/6 male mice (3-week old) were acclimated to the breeding condition for 1 week. […] Blood glucose was measured every week.

Test [3] relates to glutamine synthetase (GS). Kind of test: GS activity, GS expression and Tyr-nitrated GS in PFC of chronic immobilization stress mice. Format: in vivo, mouse. The protocol: Each of the blood and PFC sample was obtained from a mouse anesthetized with CO2 gas. Specifically, mouse blood was collected between 9 AM and 11 AM and stored in a K3EDTA-coated vacuum container. Plasma was obtained by centrifuge for 10 minutes at 4° C., 500×g. PFC sample was weighed first, and, after lysis of the tissues by using Bullet homogenizer, subjected to centrifuge for 20 minutes at 4° C., 12,000 rpm. Thus-obtained plasma and tissue lysate were kept at −80° C. until use.
10 μg of the lysate were admixed with […] of GS assay buffer solution (50 mM imidazole-HCl, pH 6.8, 50 mM L-glutamine, 25 mM hydroxylamine, 25 mM sodium arsenate, 2 mM MnCl2 and 0.16 mM ADP), followed by incubation for 1 hour at 37° C.
After the mixing, the reaction was terminated by adding 50 μl of stop buffer solution (90 mM FeCl3, 1.8 N HCl and 1.45% trichloroacetic acid), and then γ-glutamylhydroxamate synthesized from a reaction between glutamine and hydroxylamine as catalyzed by GS was measured at 560 nm using a microplate reader.
By using Western blot (WB) and immunoprecipitation (IP)-WB, level of GS and level of Tyr-nitrated GS were measured, respectively. […]
The animal models were divided into two groups (i.e., normal group and stress group). […] Change in bodyweight and food intake amount were measured every other day. […]

In test [4] the test system is glutamine synthetase (GS). The test is described as follows: activity of glutamine synthetase (GS) in hippocampus lysate after kainic acid. The settings on record: mouse survived after kainic acid, tyrosine diet vs ND/control. Format: in vivo. Here is the method: To a 96-well plate, 2 μl of hippocampus lysate were added, and then adjusted to 50 μl by additionally adding 50 mM imidazole-HCl buffer solution (pH 6.8). After adding 50 μl of GS activity assay buffer solution (50 mM imidazole-HCl, pH 6.8, 25 mM L-glutamine, 12.5 mM hydroxylamine, 12.5 mM sodium arsenate, 1 mM MnCl2 and 0.08 mM ADP), the reaction was allowed to occur at 37° C. for 30 to 60 minutes.
Upon the completion of the reaction, γ-glutamylhydroxamate as a reference material was added to an empty well such that it is present at a concentration of between 0.391 and 25.0 mM. To the sample and reference material, 100 μl of reaction termination solution (90 mM FeCl3, 1.8 N HCl and 1.45% (w/v) trichloroacetic acid) were added and absorbance at a wavelength of 560 nm was measured.
Based on comparison with standard curve, GS activity was obtained for each sample. GS activity was expressed in terms of the production amount of γ-glutamylhydroxamate as a final product with unit of μM/min/μg of protein.

The test system of a further test is mouse PFC protein. Kind of test: inhibitory effect on in vitro nitration of mouse PFC protein induced by ONOO−. The settings on record: mouse PFC protein treated with ONOO−. The class given is biochemical. The text has this: By treating mouse PFC protein with ONOO^−, protein nitration was induced and the inhibitory effect on nitration by tyrosine was examined.

On to `N[C@@H](Cc1ccc(O)cc1)C(=O)O` [L-tyrosine], for which the “amount of nitrotyrosine protein in kidney tissues” value in the test with nitrotyrosine protein is given as “significantly reduced”. The ALT in plasma entry in test [1] was “suppressed with statistical significance”. Further, the results for the blood glucose result in test [2] and in test [2] (listed as L-Tyr) were “statistically significant decrease in blood glucose amount” and “statistically significant decrease”, respectively.
Regarding `N[C@@H](Cc1ccc(O)cc1)C(=O)O` [tyrosine], the “GS activity in PFC” value in test [3] (stress group, tyrosine diet (181.2 mg/kg) compared to normal diet) was “statistically significant increase in the GS activity”. In test [3] (tyrosine-diet group compared to stress group with normal diet, PFC), the “amount of N-Tyr (nitrated tyrosine) in GS” value was “statistically significant decrease in the amount of N-Tyr”. For the same compound, the “GS activity in hippocampal tissues” value in test [4] is on record as “the same or higher than the control group; also recorded: statistically significant increase in GS activity”. In addition, the “inhibitory effect on nitration of proteins” value in the test with mouse PFC protein was “nitration of the proteins is inhibited in tyrosine concentration dependent manner”.
